This is an account of results in US20180134788A1, “Methods and Pharmaceutical Compositions (NTSR1 Inhibitors) for the Treatment of Hepatocellular Carcinomas” (INSERM (Institut National de la Sante et de la Recherche …, priority 2015, published 2018).

One experiment deals with HEP 3B tumors. Nature of the experiment: HEP 3B experimental tumor growth in mice. In kind it is in vivo. To be noted: HEP 3B tumors, 1 mg/kg SR 48692 per os every day. The method, then:
(§1) (A) Experimental tumors were generated from the HCC cancer cell line, HEP 3B and PLC/RF5 and the NTSR1-overexpressing subclones. Comparative growth curves of HEP 3B, HEP-R1a, PLC/RF5, PLC/R1 in 8, 7, 10 and 7 mice, respectively. Tumor volumes were measured twice a week. (B) Tumor weight at 42 days. (C and D) Experimental tumors were generated from HEP 3B or HEP-R1a in the different mice. When the tumor size reached 100 mm3, mice were randomly distributed in 2 groups. A control group force feed with H2O, or with 1 mg/kg SR 48692 every day. (E) Typical IHC performed on paraffin sections for NTS, NTSR1 EGFR and phosphorylated EGFR labelling, 200× magnification.
(§2) Experimental tumors were generated from HEP 3B (A) and HEP-R1a (B) in the same mice. Mice were treated per os with 75 mg/kg erlotinib every day for 22 days. Tumor size was measured every two days. Result shown is the ratio of tumor compare to day 1. (C) The doubling time was subsequently calculated using the following formula: doubling time=t*((LN(2))/(LN(VOL F/VOL I)), at day 22.
(§3) Experimental tumors were generated from HEP 3B (D) or HEP-R1a (E) in the different mice. When the tumor size reached 100 mm^3, mice were randomly distributed in 2 groups. A control group force feed with H2O, and the treated group, force feed every day with […] sorafenib. Result shown is the ratio of tumor compare to day 1. (F) Tumor weight at day 15.
(§4) To determine the contribution of NTS/NTSR1 complex on tumor progression, mice were implanted with HCC cell lines and NTSR1 overexpressing clones. For HEP3B cells the tumors were measurable 21 days after cells injection. In contrast, the tumor burden for both clones overexpressing NTSR1 was measurable at day 13. The growth rate at day 42 was 2.9 and 2.08 fold higher for HEP-R1a and PLC-R1a as compared to respective parental cells, respectively, (FIG. 7A). As shown in FIG. 7B the tumor weights were in correspondence with the tumor size 4.3 and 2.8 fold higher for HEP-R1a and PLC-R1a as compared to their respective parental cells, respectively. To confirm the contribution of NTS/NSTR1 complex in tumor growth, animals were treated with a specific NTSR1 antagonist, the SR 48692. When tumors reach 100 mm3, the groups were treated per os with H2O, or 1 mg/kg SR 48692, respectively. […] The final tumor size of HEP-R1a tumors treated with SR 48692 was 441.9±39.85 mm^3, and was very similar to the untreated HEP 3B tumors 516.3±139.72 mm^3.
As shown above, NTSR1 activation induced a sustained EGFR activation, which we believe, acts as EGFR driver mutation (FIG. 4). To explore this hypothesis, the HCC cell lines HEP 3B and HEP-R1a were xenografted on the same mice. The mice were randomly distributed in two groups based on the size of the HEP 3B tumors. Since HEP-R1a tumors grow faster than HEP 3B tumors, HEP 3B cells were injected a few days before HEP-R1a cells. In the control group, the average HEP3B tumor size was 168.2±38.1 mm3 and the HEP-R1a tumor size was 79.7±16.4 mm3 at day 1. The treated group carried HEP 3B tumors of 164.7±31.2 mm3 and HEP-R1a tumors of 87.2±19.13 mm3 at day 1. Mice were daily treated, per os, with 75 mg/kg erlotinib or H2O for 22 days. […] Over the period of the treatment, the doubling time of HEP-R1a tumors was 7.0±0.55 days and 10.1±1.1 (p=0.0016) for control and treated with erlotinib, respectively. For the HEP 3B tumors, the doubling time was similar 7.8±0.52 and 7.7±0.84 days for control and treated group respectively (FIG. 8 C). […]

In experiment [1] the test system is HEP3B cells with upregulated NTSR1 (HEP-R1a, HEP-R1b). In words: Boyden chamber invasion on type-I collagen-coated inserts. Format: cell-based. To be noted: HEP3B NTSR1 clones, 36 hours, 5 μM SR 48692 or antibodies. The method, then:
(A) Speed of migration on type 1 collagen of HEP 3B and NTSR1 overexpressing clones treated or not with 1/100 NTS or 1/100 Long Fragment NTS antibody. Results represent the mean±SEM of 5 independent experiments. (B) Speed of migration on type 1 collagen of PLC/RF5 and NTSR1 overexpressing clones in the presence or not of 5 μM SR 48692. Results represent the mean±SEM of 3 independent experiments. (C) Numbers of invasive cells crossing the type I collagen in Boyden chamber when HEP 3B and NTSR1 overexpressing clones were treated or not with NTS or Long Fragment NTS antibody or 5 μM. SR 48692. Results are expressed relatively to wild type cells and represent the mean±SEM of 5 to 7 independent experiments.
In parallel, Boyden chambers were used to examine the invasiveness characteristics of HCC cancer cells, on type-I collagen-coated inserts over 36 hours incubation. Compared with HEP 3B cells, the number of invading cancer cells for HEP-R1a cells and HEP-R1b cells is increased by 211±19% (p<0.01) and 617±94% (p<0.01), respectively. To determine whether NTS contributes to cellular invasion, cells were exposed to the NTSR1 antagonist, or two antibodies directed against NTS or the long fragment NTS. […] In our hands, the PLC/PRF5 cells were very invasive.

Another experiment has as its system HEP-R1a tumors. In words: HEP-R1a experimental tumor growth in mice. Format: in vivo. The method, then:
as §1, §2, §3, §4
As shown above, NTSR1 activation induced a sustained EGFR activation, which we believe, acts as EGFR driver mutation (FIG. 4). To explore this hypothesis, the HCC cell lines HEP 3B and HEP-R1a were xenografted on the same mice. The mice were randomly distributed in two groups based on the size of the HEP 3B tumors. Since HEP-R1a tumors grow faster than HEP 3B tumors, HEP 3B cells were injected a few days before HEP-R1a cells. In the control group, the average HEP3B tumor size was 168.2±38.1 mm3 and the HEP-R1a tumor size was 79.7±16.4 mm3 at day 1. The treated group carried HEP 3B tumors of 164.7±31.2 mm3 and HEP-R1a tumors of 87.2±19.13 mm3 at day 1. Mice were daily treated, per os, with 75 mg/kg erlotinib or H2O for 22 days. […] Over the period of the treatment, the doubling time of HEP-R1a tumors was 7.0±0.55 days and 10.1±1.1 (p=0.0016) for control and treated with erlotinib, respectively. For the HEP 3B tumors, the doubling time was similar 7.8±0.52 and 7.7±0.84 days for control and treated group respectively (FIG. 8 C).
Sorafenib is a known multikinase inhibitor targeting Raf/MEK/ERK signaling at the level of Raf kinase, angiogenesis, VEGFR-2/-3, and PDGFR-β tyrosine kinase. Sorafenib is currently used to treat HCC with some success. In order to evaluate the autocrine NTS regulation on sorafenib responses, each HEP 3B or HEP-R1a cells were injected to four groups of mice. When tumors reach 100 mm3, the groups were treated per os with H2O, 30 mg/kg sorafenib for 15 days, respectively. […]

For the molecule `COc1cccc(OC)c1-c1cc(C(=O)NC2(C(=O)O)C3CC4CC(C3)CC2C4)nn1-c1ccnc2cc(Cl)ccc12` (stereo not shown) [SR48692], the tumor growth rate result is given as “no influence” in the experiment with HEP 3B tumors and “inhibited by two fold” in the experiment on HEP-R1a tumors (1 mg/kg SR 48692 per os every day). Besides, the “increase of cellular invasion when NTSR1 is upregulated” value in experiment [1] was “fully or partially abolished”. The same molecule had a final tumor size in the experiment on HEP-R1a tumors (1 mg/kg SR 48692 per os) of 441.9±39.85 mm^3.
